Experimental data taken from patent publication US20090247589A1, “Monocarboxylates for modifying macrophage function” (The Brigham and Women's Hospital, Inc., priority 2006, published 2009).

Legend:
[1] = tested on: RAW 264.7 cells; conditions: LPS-stimulated RAW 264.7 cells; concomitant administration
[2] = tested on: RAW 264.7 cells; assay: Proinflammatory cytokine production by RAW 264.7 cells stimulated with IFN-γ plus uric acid; assay type: cell-based, murine
[3] = tested on: cardiac graft; conditions: continuous infusion by osmotic minipumps for 4 weeks; 60-80 μmol/kg/day; outliers excluded
Method: (§1) The dose of nicotinic acid was 60-80 μmol/kg/day, corresponding to 500-1000 mg of nicotinic acid in a 70 kg human (depending on bioavailability).

[4] = tested on: RAW 264.7 cells; conditions: MTT assay
Method: as §1

SMILES	production of IL-6 [1]	production of TNF-α [1]	abrogation of uric acid + IFN-γ stimulated production of proinflammatory cytokines such as TNF-α ([2]; concomitant administration)	graft condition (histology) compared to saline-treated controls [3]	effect on cell proliferation [4]	production of proinflammatory cytokines such as TNF-α (stimulating effect) ([2]; uric acid together with other macrophage stimulators such as IFN-γ)
O=C(O)c1cccnc1 [nicotinic acid]	significantly reduced	significantly reduced	largely abrogated	near normal grafts	nor nicotinic acid have any significant effect	
O=c1[nH]c(=O)c2[nH]c(=O)[nH]c2[nH]1 [uric acid]						synergistically, further stimulating production
